Measured values as given in the supplement of paper PMC10331698.
± gives the standard deviation of the averaged measurements.

Experiments:
Assay in all cases: level (log10 ratio to DMSO vehicle control); higher = higher biomarker level / cell amount than vehicle control
[1] = compound: O=C(O)C(F)(F)C(F)(F)C(F)F [4H-Perfluorobutanoic acid]; conditions: in DMSO
Method: (§1)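 BioMAP Diversity Plus panel of 12 human primary cell co-culture systems (3C, 4H, LPS, SAg, BT, BF4T, BE3C, CASM3C, HDF3CGF, KF3CT, MyoF, Mphg). Compounds were added 1 h before stimulation and left for 24 h (MyoF 48 h; BT 72 h for soluble read-outs or 6 d for IgG). Biomarkers were read by ELISA, cytotoxicity by SRB, PBMC viability and proliferation by Alamar Blue. Each well value was divided by the mean of 8 DMSO control wells on the same plate and log10 transformed; duplicate blinded samples were tested at 4 concentrations.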

Perfluoropentanoic acid = compound: O=C(O)C(F)(F)C(F)(F)C(F)(F)C(F)(F)F [Perfluoropentanoic acid]; conditions: in DMSO
Method: as §1

[2] = compound: FC(F)(F)C(F)(F)C(F)(F)C(F)(F)C(F)(F)C(F)(F)C(F)(F)C(F)(F)CCS [2-(Perfluorooctyl)ethanthiol]; conditions: in DMSO
Method: as §1

[3] = compound: FC(F)(F)C(F)(F)C(F)(F)C(F)(F)C(F)(F)CCI [1-Iodo-1H,1H,2H,2H-perfluoroheptane]; conditions: in DMSO
Method: as §1

Perfluoro-1-iodohexane = compound: FC(F)(F)C(F)(F)C(F)(F)C(F)(F)C(F)(F)C(F)(F)I [Perfluoro-1-iodohexane]; conditions: in DMSO
Method: as §1

Perfluorodecanoic acid = compound: O=C(O)C(F)(F)C(F)(F)C(F)(F)C(F)(F)C(F)(F)C(F)(F)C(F)(F)C(F)(F)C(F)(F)F [Perfluorodecanoic acid]; conditions: in DMSO
Method: as §1

[4] = compound: O=S(=O)(O)C(F)(F)C(F)(F)C(F)(F)C(F)(F)C(F)(F)C(F)(F)F [Perfluorohexanesulfonic acid]; conditions: in DMSO
Method: as §1

[5] = compound: OCCCC(F)(F)C(F)(F)C(F)(F)C(F)(F)C(F)(F)C(F)(F)C(F)(F)F [7:3 Fluorotelomer alcohol]; conditions: 6700 nM; in DMSO
Method: as §1

Row | Test System | level (log10) ([1]; 6700 nM) | level (log10) ([1]; 20000 nM) | level (log10) ([1]; 60000 nM) | level (log10) (Perfluoropentanoic acid; 6700 nM) | level (log10) (Perfluoropentanoic acid; 20000 nM) | level (log10) (Perfluoropentanoic acid; 60000 nM) | level (log10) ([2]; 6700 nM) | level (log10) ([2]; 20000 nM) | level (log10) ([3]; 6700 nM) | level (log10) ([3]; 20000 nM) | level (log10) ([3]; 60000 nM) | level (log10) (Perfluoro-1-iodohexane; 6700 nM) | level (log10) (Perfluoro-1-iodohexane; 20000 nM) | level (log10) (Perfluoro-1-iodohexane; 60000 nM) | level (log10) (Perfluorodecanoic acid; 6700 nM) | level (log10) (Perfluorodecanoic acid; 20000 nM) | level (log10) ([4]; 6700 nM) | level (log10) ([4]; 20000 nM) | level (log10) ([4]; 60000 nM) | level (log10) [5]
1 | CASM3C:CD87/uPAR | -0.016 ± 0.013 | 0 ± 0.02 | 0.0055 ± 0.022 | -0.027 ± 0.052 | -0.031 ± 0.027 | -0.0175 ± 0.005 | -0.0395 ± 0.053 | -0.0205 ± 0.04 | 0.008 ± 0.016 | -0.0075 ± 0.0078 | -0.0265 ± 0.037 | 0 ± 0.0085 | -0.0105 ± 0.03 | 0.003 ± 0.021 | -0.0055 ± 0.005 | 0.016 ± 0.011 | 0.007 ± 0.0014 | 0.001 ± 0.0057 | 0.0065 ± 0.012 | -0.036 ± 0.057
2 | CASM3C:CD106/VCAM-1 | 0.031 ± 0.057 | 0.041 ± 0.014 | 0.04 ± 0.0085 | -0.0225 ± 0.0078 | -0.0565 ± 0.029 | -0.009 ± 0.0057 | -0.0135 ± 0.005 | -0.014 ± 0.0099 | 0.0215 ± 0.005 | -0.0015 ± 0.0078 | -0.063 ± 0.0014 | 0.003 ± 0.017 | -0.003 ± 0.025 | -0.023 ± 0.041 | 0.0015 ± 0.0092 | -0.036 ± 0.0085 | -0.0145 ± 0.023 | -0.0175 ± 0.016 | -0.047 ± 0.024 | -0.012 ± 0.016
3 | CASM3C:CD141/Thrombomodulin | -0.0005 ± 0.016 | 0 ± 0.081 | -0.0145 ± 0.028 | -0.0065 ± 0.016 | -0.0135 ± 0.035 | 0.0105 ± 0.005 | -0.034 ± 0.048 | -0.0065 ± 0.09 | -0.011 ± 0.0085 | 0.0015 ± 0.012 | 0.0845 ± 0.012 | 0.0055 ± 0.015 | -0.006 ± 0.0028 | -0.004 ± 0.0028 | -0.015 ± 0.031 | -0.0125 ± 0.029 | 0.0005 ± 0.0064 | 0.0015 ± 0.005 | -0.0055 ± 0.022 | 0 ± 0.0014
4 | CASM3C:CD142/Tissue Factor | 0.0045 ± 0.14 | -0.039 ± 0.093 | -0.0415 ± 0.037 | -0.002 ± 0.0071 | -0.013 ± 0.024 | -0.0225 ± 0.056 | -0.0015 ± 0.13 | -0.0415 ± 0.07 | 0.001 ± 0.0085 | -0.0065 ± 0.005 | -0.0295 ± 0.028 | -0.009 ± 0.013 | -0.018 ± 0.0042 | -0.031 | 0.008 ± 0.0042 | -0.0055 ± 0.012 | 0.0145 ± 0.047 | -0.0005 ± 0.023 | 0.005 ± 0.0014 | -0.011 ± 0.016
5 | CASM3C:CXCL8/IL-8 | -0.003 ± 0.0057 | 0.004 ± 0.0042 | 0.0135 ± 0.033 | -0.01 ± 0.0085 | -0.019 ± 0.011 | -0.0015 ± 0.013 | 0.021 ± 0.047 | 0.034 ± 0.037 | 0.002 ± 0.0028 | -0.0025 ± 0.0035 | 0.003 ± 0.018 | 0.0055 ± 0.0092 | -0.0005 ± 0.0078 | 0.011 ± 0.021 | -0.0035 ± 0.0064 | -0.006 ± 0.0028 | -0.006 ± 0.013 | -0.003 | 0.026 ± 0.014 | -0.0145 ± 0.005
6 | CASM3C:CXCL9/MIG | -0.0035 ± 0.028 | 0.0125 ± 0.00071 | 0.032 ± 0.017 | 0.001 ± 0.062 | -0.0015 ± 0.036 | 0.043 ± 0.017 | -0.0025 ± 0.023 | 0.0395 ± 0.0064 | -0.007 ± 0.0042 | -0.0025 ± 0.0021 | 0.008 ± 0.011 | -0.0015 ± 0.0064 | 0.002 ± 0.0028 | -0.0025 ± 0.036 | -0.012 ± 0.0028 | -0.0055 ± 0.0064 | 0.003 ± 0.0099 | 0.0045 ± 0.0064 | 0.012 ± 0.0014 | -0.0125 ± 0.0035
7 | CASM3C:HLA-DR | -0.007 ± 0.0028 | 0.0435 ± 0.033 | 0.006 ± 0.024 | -0.019 ± 0.014 | -0.022 ± 0.023 | 0.003 ± 0.054 | -0.0165 ± 0.012 | 0.003 ± 0.0028 | -0.006 ± 0.0099 | -0.0055 ± 0.0064 | -0.009 ± 0.021 | 0.0075 ± 0.0092 | 0.004 ± 0.0057 | 0.0095 ± 0.022 | 0 | 0.006 ± 0.014 | 0.0105 ± 0.015 | -0.001 ± 0.013 | -0.008 ± 0.028 | 0.008 ± 0.0071
8 | CASM3C:IL-6 | -0.0125 ± 0.0035 | 0.0045 ± 0.023 | 0.0225 ± 0.021 | -0.02 ± 0.028 | -0.028 ± 0.027 | 0.014 ± 0.047 | 0.0235 ± 0.09 | 0.0465 ± 0.035 | -0.0145 ± 0.022 | -0.044 ± 0.0057 | -0.017 ± 0.018 | -0.0035 ± 0.012 | -0.0055 ± 0.0021 | 0.018 ± 0.0099 | -0.035 ± 0.037 | -0.0375 ± 0.039 | -0.027 ± 0.017 | -0.0225 ± 0.0021 | -0.0025 ± 0.036 | 0.0015 ± 0.012
9 | CASM3C:LDLR | -0.0785 ± 0.037 | -0.039 ± 0.0042 | -0.0235 ± 0.026 | -0.0085 ± 0.0064 | -0.0045 ± 0.0078 | -0.0095 ± 0.025 | -0.025 ± 0.04 | -0.0505 ± 0.0092 | 0.0005 ± 0.011 | 0.009 | 0.013 ± 0.016 | -0.008 ± 0.0057 | 0.0155 ± 0.016 | 0.005 ± 0.028 | -0.0045 ± 0.0078 | 0.0105 ± 0.03 | -0.014 ± 0.0042 | -0.0055 ± 0.0035 | 0.0155 ± 0.039 | 0.012 ± 0.0028
10 | CASM3C:M-CSF | 0.004 ± 0.045 | -0.009 ± 0.016 | 0.059 ± 0.027 | -0.0055 ± 0.016 | -0.004 ± 0.017 | 0.0045 ± 0.032 | 0.013 ± 0.0014 | 0.047 ± 0.014 | -0.0055 ± 0.035 | -0.0145 ± 0.011 | -0.0265 ± 0.0092 | -0.0125 ± 0.025 | 0.0055 ± 0.032 | 0.0085 ± 0.043 | 0.0145 ± 0.0078 | 0.0345 ± 0.019 | -0.007 ± 0.028 | -0.012 ± 0.014 | 0.0305 ± 0.00071 | 0.007 ± 0.0042
11 | CASM3C:PAI-I | 0.009 ± 0.0071 | 0.006 ± 0.0071 | 0.0075 ± 0.0021 | -0.0095 ± 0.011 | -0.007 ± 0.0042 | 0.0005 ± 0.011 | -0.014 ± 0.017 | 0.0055 ± 0.026 | 0.003 ± 0.0042 | 0.001 ± 0.0014 | 0.007 ± 0.0042 | -0.003 ± 0.0071 | -0.007 ± 0.0014 | -0.003 ± 0.0028 | 0.001 ± 0.0014 | -0.0015 ± 0.005 | 0.001 ± 0.013 | 0.002 ± 0.0028 | 0.006 | -0.005 ± 0.0014
12 | CASM3C:Proliferation | 0.0045 ± 0.011 | -0.0185 ± 0.066 | 0.0045 ± 0.04 | 0.0185 ± 0.021 | -0.0305 ± 0.067 | 0.0215 ± 0.052 | 0.006 ± 0.0071 | -0.0105 ± 0.053 | -0.034 ± 0.0071 | -0.101 ± 0.062 | -0.106 ± 0.054 | 0.023 ± 0.0071 | -0.02 ± 0.013 | -0.021 ± 0.067 | 0.049 ± 0.0028 | 0.0205 ± 0.035 | 0.014 ± 0.014 | 0.002 ± 0.014 | 0.0185 ± 0.011 | 0.052 ± 0.0057
13 | CASM3C:SRB | -0.0015 ± 0.0078 | -0.002 ± 0.0071 | 0 ± 0.0099 | 0.0095 ± 0.0021 | -0.008 ± 0.0014 | 0.004 ± 0.0099 | 0.002 ± 0.0085 | 0.0095 ± 0.0064 | 0.0035 ± 0.0021 | -0.0075 ± 0.0078 | -0.024 ± 0.0028 | 0.0035 ± 0.013 | 0.0015 ± 0.0021 | -0.0015 ± 0.016 | 0.0055 ± 0.0064 | 0.0055 ± 0.0064 | -0.0045 ± 0.0021 | -0.0015 ± 0.012 | -0.0025 ± 0.016 | 0.006 ± 0.0028
14 | CASM3C:Serum Amyloid A | -0.056 ± 0.038 | -0.083 ± 0.055 | -0.0715 ± 0.11 | -0.003 ± 0.0071 | -0.013 ± 0.011 | -0.0045 ± 0.033 | -0.0145 ± 0.013 | 0.002 ± 0.047 | 0.011 ± 0.023 | 0.003 ± 0.0014 | -0.0195 ± 0.026 | 0.0035 ± 0.042 | 0.008 ± 0.035 | 0.007 ± 0.025 | 0.035 ± 0.031 | 0.0345 ± 0.026 | -0.0215 ± 0.057 | -0.0085 ± 0.015 | 0.007 ± 0.021 | -0.0135 ± 0.028
